Reference: patent US12281122B1, “PI3K inhibitors” (Cogent Biosciences, Inc., priority 2023, dated 2025)

Tests used:
[1] = tested on: T47D (PI3Kα-H1047R) cell line; experiment: HTRF phospho-AKT(S473) cell assay in T47D cells; format: cell-based, human
Procedure: (§1) Compounds in the present disclosure were tested in a cell based HTRF phospho-AKT(S473) (CisBio/Revvity) assay in human breast cancer cell lines as a measurement of PIK3CA activity through measuring AKT, a downstream effector. The activity of mutant PI3Kα-H1047R and PI3Kα-Wild Type was measured in the T47D (PI3Kα-H1047R) and SKBR3 (PI3Kα-Wild Type) cell lines, respectively. T47D cells were plated at 20,000 cells per well in 50 μL in RPMI medium supplemented with 10% FBS and 0.2 units/mL insulin, in 384 well plates. SKBR3 cells were plated at 25,000 cells per well in 50 μL in McCoy's 5A medium supplemented with 10% FBS, in 384 well plates. Cells were plated using a Combi Multidrop reagent dispenser (ThermoFisher), and placed in 5% CO2, 37° C. incubator overnight to adhere.
(§2) The next day, cells were treated with either compounds or vehicle (DMSO) in a 12-fold dose response curve of 1:3 dilutions, with 5 μM and 10 μM as the top concentrations for the T47D and SKBR3 cell lines, respectively. Compound treatment was facilitated via the D300e digital dispenser (Tecan), with a maximum DMSO concentration of 0.5%. Following compound addition, cell plates were incubated for 2 hours in 5% CO2, 37° C. incubator. The SKBR3 cells were stimulated and treated with 70 ng/ml PDGF-BB ligand (ThermoFisher) for the remaining 15 minutes of the incubation. Following compound incubation, compound and media was aspirated from the cells and 25 μL of supplemented lysis buffer was added per well, and incubated for 45 minutes at room temperature, shaking at 600 rpm. Next, 16 μL of cell lysate was added to a 384 well low volume ProxyPlate (Perkin Elmer/Revvity) mixed with 4 μL of HTRF antibodies (1:1 Eu Cryptate+d2 Cryptate). HTRF supplemented lysis buffer and antibody reagents were used from the phosphor-AKT(S473) HTRF assay kit (CisBio/Revvity), following manufacturers protocol recommendations. Plates were sealed and incubated at 4° C. overnight.
(§3) The following day, plates were centrifuged for 1 minute at 1000 rpm, and read on a PHERAstar plate reader. IC50 values were calculated using Spotfire software.

[2] = tested on: SKBR3 (PI3Kα-Wild Type) cell line; experiment: HTRF phospho-AKT(S473) cell assay in SKBR3 cells; format: cell-based, human
Procedure: as §1, §2, §3

[3] = Homo sapiens; T47D (PI3Kα-H1047R) cells, HTRF phospho-AKT(S473), 2 hours compound incubation
[4] = Homo sapiens, SK-BR-3; SKBR3 (PI3Kα-Wild Type) cells, HTRF phospho-AKT(S473), 2 hours compound incubation, PDGF-BB stimulated
[5] = Homo sapiens; HTRF phospho-AKT(S473), T47D (PI3Kα-H1047R) cells, 2 hours compound incubation
[6] = Homo sapiens, SK-BR-3; HTRF phospho-AKT(S473), SKBR3 (PI3Kα-Wild Type) cells, 2 hours compound incubation, PDGF-BB stimulated

Cc1cc([C@@H](C)Nc2ccc(Cl)nc2C(=O)NS(C)(=O)=O)c2nc(N3CCC[C@H](c4cn[nH]c4)C3)n(C)c(=O)c2c1 (mixture of isomers) [Compound 168, 3-(((R)-1-(2-((RS)-3-(1H-pyrazol-4-yl)piperidin-1-yl)-3,6-dimethyl-4-oxo-3,4-dihydroquinazolin-8-yl)ethyl)amino)-6-chloro-N-(methylsulfonyl) picolinamide]
IC50 [1, 3]: < 250 nM | IC50 [2, 4]: 1000 to 5000 nM

Cc1cc([C@@H](C)Nc2ccc(Cl)nc2C(=O)NS(C)(=O)=O)c2nc(N3CCC[C@@H](c4ccc(C)nc4)C3)n(C)c(=O)c2c1 (mixture of isomers) [Compound 215, 6-chloro-3-(((R)-1-(3,6-dimethyl-2-((RS)-3-(6-methylpyridin-3-yl)piperidin-1-yl)-4-oxo-3,4-dihydroquinazolin-8-yl)ethyl)amino)-N-(methylsulfonyl) picolinamide]
IC50 [1, 3]: < 250 nM | IC50 [2, 4]: 1000 to 5000 nM

Cc1cc([C@@H](C)Nc2ccc(Cl)nc2C(=O)NS(C)(=O)=O)c2nc(N3CCC[C@@H](c4nccc(C)n4)C3)n(C)c(=O)c2c1 (mixture of isomers) [Compound 633, 6-chloro-3-(((R)-1-(3,6-dimethyl-2-((RS)-3-(4-methylpyrimidin-2-yl)piperidin-1-yl)-4-oxo-3,4-dihydroquinazolin-8-yl)ethyl)amino)-N-(methylsulfonyl) picolinamide]
IC50 [1, 5]: 250 to 500 nM | IC50 [2, 6]: ≥ 5000 nM

CO[C@H]1CCC2(CCN(c3nc4c([C@@H](C)Nc5ccc(Cl)nc5C(=O)NS(C)(=O)=O)cc(C)cc4c(=O)n3C)CC2)OC1 (mixture of isomers) [Compound 721, 6-chloro-3-(((R)-1-(2-((RS)-3-methoxy-1-oxa-9-azaspiro[5.5]undecan-9-yl)-3,6-dimethyl-4-oxo-3,4-dihydroquinazolin-8-yl)ethyl)amino)-N-(methylsulfonyl) picolinamide]
IC50 [1, 5]: 250 to 500 nM | IC50 [2, 6]: ≥ 5000 nM

Cc1cc([C@@H](C)Nc2ccc(Cl)nc2C(=O)NS(C)(=O)=O)c2nc([C@H]3CCCN(c4nccc(C)n4)C3)n(C)c(=O)c2c1 (mixture of isomers) [Compound 756, 6-chloro-3-(((R)-1-(3,6-dimethyl-2-((RS)-1-(4-methylpyrimidin-2-yl)piperidin-3-yl)-4-oxo-3,4-dihydroquinazolin-8-yl)ethyl)amino)-N-(methylsulfonyl) picolinamide]
IC50 [1, 5]: 500 to 1000 nM | IC50 [2, 6]: ≥ 5000 nM

Cc1cc([C@@H](C)Nc2ccc(Cl)nc2C(=O)NS(C)(=O)=O)c2nc(N3C[C@@H]4CC(c5cnc(C)nc5)C[C@H]4C3)n(C)c(=O)c2c1 (mixture of isomers) [Compound 762, 6-chloro-3-(((R)-1-(3,6-dimethyl-2-((3aRS,6aRS)-5-(2-methylpyrimidin-5-yl)hexahydrocyclopenta [c]pyrrol-2(1H)-yl)-4-oxo-3,4-dihydroquinazolin-8-yl)ethyl)amino)-N-(methylsulfonyl) picolinamide]
IC50 [1, 5]: 250 to 500 nM | IC50 [2, 6]: ≥ 5000 nM

Cc1cc([C@@H](C)Nc2ccc(Cl)nc2C(=O)NS(C)(=O)=O)c2nc(N3[C@@H]4CC[C@H]3C[C@@H](c3cnn(C)c3)C4)n(C)c(=O)c2c1 (racemic) [Compound 381, 6-chloro-3-(((R)-1-(3,6-dimethyl-2-((1RS,3RS,5SR)-3-(1-methyl-1H-pyrazol-4-yl)-8-azabicyclo[3.2.1]octan-8-yl)-4-oxo-3,4-dihydroquinazolin-8-yl)ethyl)amino)-N-(methylsulfonyl) picolinamide]
IC50 [1, 3]: < 250 nM | IC50 [2, 4]: 1000 to 5000 nM

Cc1cc([C@@H](C)Nc2ccc(Cl)nc2C(=O)NS(C)(=O)=O)c2nc(N3C[C@H]4C[C@@H](C3)C4c3n[nH]cc3F)n(C)c(=O)c2c1 (mixture of isomers) [Compound 650, 6-chloro-3-(((1R)-1-(2-((1R,5S)-6-(4-fluoro-1H-pyrazol-3-yl)-3-azabicyclo[3.1.1]heptan-3-yl)-3,6-dimethyl-4-oxo-3,4-dihydroquinazolin-8-yl)ethyl)amino)-N-(methylsulfonyl) picolinamide]
IC50 [1, 5]: 250 to 500 nM | IC50 [2, 6]: ≥ 5000 nM

Cc1cc([C@@H](C)Nc2ccc(Cl)nc2C(=O)NS(C)(=O)=O)c2nc(C3CCCN(c4ncc(F)cn4)C3)n(C)c(=O)c2c1 (mixture of isomers) [Compound 748, 6-chloro-3-(((1R)-1-(2-(1-(5-fluoropyrimidin-2-yl)piperidin-3-yl)-3,6-dimethyl-4-oxo-3,4-dihydroquinazolin-8-yl)ethyl)amino)-N-(methylsulfonyl) picolinamide]
IC50 [1, 5]: 500 to 1000 nM | IC50 [2, 6]: ≥ 5000 nM

Cc1cc([C@@H](C)Nc2ccc(Cl)nc2C(=O)NS(C)(=O)=O)c2nc(N3CCC[C@H](c4cnn(C)c4)C3)n(C)c(=O)c2c1 (relative stereo) [Compound 194, 6-chloro-3-(((R)-1-(3,6-dimethyl-2-((R*)-3-(1-methyl-1H-pyrazol-4-yl)piperidin-1-yl)-4-oxo-3,4-dihydroquinazolin-8-yl)ethyl)amino)-N-(methylsulfonyl) picolinamide]
IC50 [1, 3]: < 250 nM | IC50 [2, 4]: 1000 to 5000 nM

Cc1cc([C@@H](C)Nc2ccc(Cl)nc2C(=O)NS(C)(=O)=O)c2nc(N3CCC[C@@H](c4cnn(C)c4)C3)n(C)c(=O)c2c1 (relative stereo) [Compound 202, 6-chloro-3-(((R)-1-(3,6-dimethyl-2-((R*)-3-(1-methyl-1H-pyrazol-4-yl)piperidin-1-yl)-4-oxo-3,4-dihydroquinazolin-8-yl)ethyl)amino)-N-(methylsulfonyl) picolinamide]
IC50 [1, 3]: < 250 nM | IC50 [2, 4]: 1000 to 5000 nM

Cc1cc([C@@H](C)Nc2ccc(Cl)nc2C(=O)NS(C)(=O)=O)c2nc(N3CCC[C@H](c4ccncc4)C3)n(C)c(=O)c2c1 (relative stereo) [Compound 205, 6-chloro-3-(((R)-1-(3,6-dimethyl-4-oxo-2-((R*)-3-(pyridin-4-yl)piperidin-1-yl)-3,4-dihydroquinazolin-8-yl)ethyl)amino)-N-(methylsulfonyl) picolinamide]
IC50 [1, 3]: < 250 nM | IC50 [2, 4]: 1000 to 5000 nM

Cc1cc([C@@H](C)Nc2ccc(Cl)nc2C(=O)NS(C)(=O)=O)c2nc(N3CCC[C@@H](c4ccncc4)C3)n(C)c(=O)c2c1 (relative stereo) [Compound 207, 6-chloro-3-(((R)-1-(3,6-dimethyl-4-oxo-2-((R*)-3-(pyridin-4-yl)piperidin-1-yl)-3,4-dihydroquinazolin-8-yl)ethyl)amino)-N-(methylsulfonyl) picolinamide]
IC50 [1, 3]: < 250 nM | IC50 [2, 4]: 1000 to 5000 nM

Cc1cc([C@@H](C)Nc2ccc(Cl)nc2C(=O)NS(C)(=O)=O)c2nc(N3CCC[C@@H](c4ccccn4)C3)n(C)c(=O)c2c1 (relative stereo) [Compound 208, 6-chloro-3-(((R)-1-(3,6-dimethyl-4-oxo-2-((R*)-3-(pyridin-2-yl)piperidin-1-yl)-3,4-dihydroquinazolin-8-yl)ethyl)amino)-N-(methylsulfonyl) picolinamide]
IC50 [1, 3]: 250 to 500 nM | IC50 [2, 4]: ≥ 5000 nM

Cc1cc([C@@H](C)Nc2ccc(Cl)nc2C(=O)NS(C)(=O)=O)c2nc([C@@H]3CCCN(c4cccnc4)C3)n(C)c(=O)c2c1 (relative stereo) [Compound 211, 6-chloro-3-(((R)-1-(3,6-dimethyl-4-oxo-2-((R*)-1-(pyridin-3-yl)piperidin-3-yl)-3,4-dihydroquinazolin-8-yl)ethyl)amino)-N-(methylsulfonyl) picolinamide]
IC50 [1, 3]: < 250 nM | IC50 [2, 4]: 1000 to 5000 nM

Cc1cc([C@@H](C)Nc2ccc(Cl)nc2C(=O)NS(C)(=O)=O)c2nc([C@@H]3CCCN(c4ccccn4)C3)n(C)c(=O)c2c1 (relative stereo) [Compound 212, 6-chloro-3-(((R)-1-(3,6-dimethyl-4-oxo-2-((R*)-1-(pyridin-2-yl)piperidin-3-yl)-3,4-dihydroquinazolin-8-yl)ethyl)amino)-N-(methylsulfonyl) picolinamide]
IC50 [1, 3]: < 250 nM | IC50 [2, 4]: 1000 to 5000 nM

Cc1cc([C@@H](C)Nc2ccc(Cl)nc2C(=O)NS(C)(=O)=O)c2nc(N3C[C@@H]4C[C@H]3C[C@@H]4c3nn(C)cc3F)n(C)c(=O)c2c1 (relative stereo) [Compound 760, 6-chloro-3-(((R)-1-(2-((1R*,4S*,5R*)-5-(4-fluoro-1-methyl-1H-pyrazol-3-yl)-2-azabicyclo[2.2.1]heptan-2-yl)-3,6-dimethyl-4-oxo-3,4-dihydroquinazolin-8-yl)ethyl)amino)-N-(methylsulfonyl) picolinamide]
IC50 ([1]; HTRF phospho-AKT(S473), T47D (PI3Kα-H1047R) cells, 2 hours compound incubation): 250 to 500 nM
